Assay results published in patent publication US20110306568A1, “COMPOSITION CONTAINING GLUCOSYLGLYCEROL” (priority 2008, published 2011).

Tests used:
Format in all cases: cell-based
[1] = system: Candida albicans; assay: Viable count of yeast fungi Candida albicans in aqueous glucosylglycerol solution with 3.5% w/w glucose; details: C. albicans; for Colony-forming units (CFU/g): 50% w/w glucosylglycerol, 3.5% w/w glucose, aqueous
From the text: (§1) In addition, a another test was analogously conducted with mold Aspergillus niger and yeast fungi Candida albicans , with an aqueous solution containing 50% w/w of 2-O-α-D glucosylglycerol and 3.5% w/w of glucose being used in this case.

[2] = system: Aspergillus niger; assay: Viable count of mold Aspergillus niger in aqueous glucosylglycerol solution with 3.5% w/w glucose; details: A. niger; for Colony-forming units (CFU/g): 50% w/w glucosylglycerol, 3.5% w/w glucose, aqueous
From the text: as §1

[3] = system: E. coli DSM 1576; assay: Viable count of E. coli DSM 1576 in aqueous glucosylglycerol solutions with 5% w/w glucose; details: for Colony-forming units (CFU/g): 5% w/w glucose, aqueous
[4] = glucosylglycerol of high concentration

`OCC(CO)O[C@H]1O[C@H](CO)[C@@H](O)[C@H](O)[C@H]1O` [Glucosylglycerol, 2-O-α-D-glucosylglycerol] was tested, and the “Colony-forming units (CFU/g)” value ([1]; 0 days) was 750,000 CFU/g, the “Colony-forming units (CFU/g)” value ([1]; 2 days) was 320,000 CFU/g and the “Colony-forming units (CFU/g)” value ([1]; 7 days) was 200,000 CFU/g. For the same compound, the “Colony-forming units (CFU/g)” value ([1]; 14 days) was 190,000 CFU/g, the “Colony-forming units (CFU/g)” value ([1]; 21 days) was 120,000 CFU/g and the “Colony-forming units (CFU/g)” value ([1]; 28 days) was 45,000 CFU/g. The fungicidal effect [1, 4] was “fungicidal effects”, the “Colony-forming units (CFU/g)” value ([2]; 0 days) was 750,000 CFU/g and the “Colony-forming units (CFU/g)” value ([2]; 2 days) was 350,000 CFU/g. The “Colony-forming units (CFU/g)” value ([2]; 7 days) was 200,000 CFU/g, the “Colony-forming units (CFU/g)” value ([2]; 14 days) was 170,000 CFU/g and the “Colony-forming units (CFU/g)” value ([2]; 21 days) was 160,000 CFU/g. For the same compound, the “Colony-forming units (CFU/g)” value ([2]; 28 days) was 12,000 CFU/g, the fungicidal effect [2, 4] was “fungicidal effects” and the “Colony-forming units (CFU/g)” value ([3]; 20% w/w glucosylglycerol, 0 days) was 300,000 CFU/g. For the same compound, the “Colony-forming units (CFU/g)” value ([3]; 20% w/w glucosylglycerol, 2 days) was 280,000 CFU/g, the “Colony-forming units (CFU/g)” value ([3]; 20% w/w glucosylglycerol, 7 days) was 100,000 CFU/g and the “Colony-forming units (CFU/g)” value ([3]; 20% w/w glucosylglycerol, 14 days) was 5,000 CFU/g. For the same compound, the “Colony-forming units (CFU/g)” value ([3]; 20% w/w glucosylglycerol, 21 days) was under 100 CFU/g, the “Colony-forming units (CFU/g)” value ([3]; 20% w/w glucosylglycerol, 28 days) was under 100 CFU/g and the “Colony-forming units (CFU/g)” value ([3]; 30% w/w glucosylglycerol, 0 days) was 300,000 CFU/g. The “Colony-forming units (CFU/g)” value ([3]; 30% w/w glucosylglycerol, 2 days) was 130,000 CFU/g, the “Colony-forming units (CFU/g)” value ([3]; 30% w/w glucosylglycerol, 7 days) was <1,000 CFU/g and the “Colony-forming units (CFU/g)” value ([3]; 30% w/w glucosylglycerol, 14 days) was under 100 CFU/g. For the same compound, the “Colony-forming units (CFU/g)” value ([3]; 30% w/w glucosylglycerol, 21 days) was under 100 CFU/g, the “Colony-forming units (CFU/g)” value ([3]; 30% w/w glucosylglycerol, 28 days) was under 100 CFU/g and the “Colony-forming units (CFU/g)” value ([3]; 50% w/w glucosylglycerol, 0 days) was 300,000 CFU/g. The “Colony-forming units (CFU/g)” value ([3]; 50% w/w glucosylglycerol, 2 days) was 150,000 CFU/g, the “Colony-forming units (CFU/g)” value ([3]; 50% w/w glucosylglycerol, 7 days) was <1,000 CFU/g and the “Colony-forming units (CFU/g)” value ([3]; 50% w/w glucosylglycerol, 14 days) was under 100 CFU/g. The “Colony-forming units (CFU/g)” value ([3]; 50% w/w glucosylglycerol, 21 days) was under 100 CFU/g, the “Colony-forming units (CFU/g)” value ([3]; 50% w/w glucosylglycerol, 28 days) was under 100 CFU/g and the bactericidal effect [3, 4] was “highly bactericidal effects”.
